Among the test systems are SNB-75 CNS; MDA-MB-435; HL-60(TB) leukemia; NCI-H522 lung; HCC-2998 colon; IGROV1 ovarian; NCI-H23 lung; RXF 393 renal; HOP-62 NSCLC; SK-OV-3 ovarian.
What all share (assay): NCI tumour cell line growth inhibition, 48 h

“And” between values parts separate entries of the source, which are not always exact repeats. Identical values can stand only once.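 1) Cells in 96-well plates. 2) Compound, 48 h, 5 concentrations. 3) Linear interpolation between surrounding doses. 4) Unreached endpoint = highest concentration. At the GI50, growth is halved. TGI: concentration producing complete growth inhibition.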 *1 amine or outer side, *2 acyl side, *3 side chain or, on linkers, in order; H or OH if unused. Where a SMILES comes first, the peptide text is derived from it. Bridges are numbered along the chain shown (N, C = ends). [ ]: non-standard residue; d: D form. The star is where a group is joined. X38 = CC[C@H](C)[C@@H](N[*:1])[C@@H](O)CC(=O)[*:2]; NMeY = CN[C@@H](Cc1ccc(O)cc1)C(=O)O; dNMeL = CN[C@H](CC(C)C)C(=O)O; Hiv = CC(C)[C@H](O)C(=O)O; Pyruvoyl = CC(=O)C(=O)*

Regarding `C/C(=N\N)C(CN(C)C)C(c1ccccc1)c1c(O)c2ccccc2oc1=O` (stereo unspecified), the TGI in the assay on SNB-75 CNS, with MDA-MB-435, in the assay on HL-60(TB) leukemia, with NCI-H522 lung, in the assay on HCC-2998 colon and in the assay on IGROV1 ovarian was over 100 µM in each case. In addition, the TGI in the assay with NCI-H23 lung, in the assay with RXF 393 renal, with HOP-62 NSCLC and in the assay with SK-OV-3 ovarian was over 100 µM in each case.
Consider `COc1cc(S(=O)(=O)Nc2ccc(-c3csc(N4C(=O)CSC4c4cccs4)n3)cc2)ccc1Cl` (stereo unspecified), for which the TGI with SNB-75 CNS is 40.3 µM; in the assay with MDA-MB-435, over 100 µM; in the assay with HL-60(TB) leukemia, 41.5 µM; with NCI-H522 lung, 33.9 µM; with HCC-2998 colon, 30.7 µM; in the assay on IGROV1 ovarian, over 100 µM. Further, the TGI is over 100 µM with NCI-H23 lung, 25.5 µM with RXF 393 renal, over 100 µM in the assay on HOP-62 NSCLC and over 100 µM in the assay on SK-OV-3 ovarian.
For `COc1cc(Br)c(OC)c2c(OC)cc(C)cc12`, the TGI in the assay on SNB-75 CNS, in the assay on MDA-MB-435, in the assay with HL-60(TB) leukemia, with NCI-H522 lung, in the assay on HCC-2998 colon and with IGROV1 ovarian was over 100 µM in each case. Further, the TGI in the assay on NCI-H23 lung, with RXF 393 renal, in the assay on HOP-62 NSCLC and in the assay on SK-OV-3 ovarian was over 100 µM in each case.
Consider `COc1ccc(Br)c2c1CC(C(=O)O)CC2` (stereo unspecified), for which the TGI in the assay with SNB-75 CNS, with MDA-MB-435, in the assay with HL-60(TB) leukemia, in the assay with NCI-H522 lung, in the assay on HCC-2998 colon and with IGROV1 ovarian was over 100 µM in each case. The TGI in the assay with NCI-H23 lung, in the assay with RXF 393 renal, with HOP-62 NSCLC and with SK-OV-3 ovarian was over 100 µM throughout.
For `CCCCCC(=O)Nc1n[nH]nc1C(N)=O`, the TGI in the assay with SNB-75 CNS, with MDA-MB-435, in the assay on HL-60(TB) leukemia, in the assay on NCI-H522 lung, in the assay on HCC-2998 colon and with IGROV1 ovarian was over 100 µM in each case. For the same compound, the TGI in the assay on NCI-H23 lung, in the assay with RXF 393 renal, with HOP-62 NSCLC and with SK-OV-3 ovarian was over 100 µM in each case.
For the compound `CC1=NC(=O)C(C)(c2ccccc2)N1CCc1ccccc1` (stereo unspecified), the TGI in the assay on SNB-75 CNS, in the assay with MDA-MB-435, with HL-60(TB) leukemia, in the assay on NCI-H522 lung, in the assay with HCC-2998 colon and in the assay on IGROV1 ovarian was over 100 µM throughout. Also, the TGI in the assay with NCI-H23 lung, in the assay on RXF 393 renal, in the assay on HOP-62 NSCLC and with SK-OV-3 ovarian was over 100 µM throughout.
In the case of `O=C1c2cc3c(cc2CC12Cc1cc4c(cc1C2=O)CCCC4)CCCC3`, the TGI is 53.4 µM in the assay with SNB-75 CNS; over 100 µM with MDA-MB-435; over 100 µM in the assay on HL-60(TB) leukemia; over 100 µM in the assay on NCI-H522 lung; over 100 µM in the assay on HCC-2998 colon; over 100 µM in the assay with IGROV1 ovarian. Also, the TGI in the assay on NCI-H23 lung was over 100 µM; with RXF 393 renal, 51.6 µM; with HOP-62 NSCLC, 57.1 µM; with SK-OV-3 ovarian it was over 100 µM.
For the compound `O=S1(=O)c2cnccc2NC(=NCc2cccc3ccccc23)N1c1ccccc1`, the TGI with SNB-75 CNS was over 100 µM; in the assay on MDA-MB-435 it was over 100 µM; in the assay with HL-60(TB) leukemia, over 53.7 µM; in the assay on NCI-H522 lung, over 100 µM; in the assay with HCC-2998 colon it was over 100 µM; with IGROV1 ovarian, over 100 µM. Also, the TGI was over 100 µM with NCI-H23 lung, over 90.4 µM in the assay on RXF 393 renal, over 100 µM in the assay with HOP-62 NSCLC and over 100 µM with SK-OV-3 ovarian.
On to `Fc1c(F)c(C(F)(F)F)c(F)c(F)c1N/N=C\c1c[nH]c2ccccc12`, for which the TGI with SNB-75 CNS worked out at 6.23 µM; in the assay on MDA-MB-435 it was 3.14 µM; in the assay on HL-60(TB) leukemia it was 9.25 µM; with NCI-H522 lung, 5.57 µM; in the assay on HCC-2998 colon, 4.19 µM; in the assay with IGROV1 ovarian it was 10.4 µM. In addition, the TGI in the assay with NCI-H23 lung is 16.4 µM; in the assay with RXF 393 renal it was 7.93 µM; in the assay with HOP-62 NSCLC it was 4.16 µM; with SK-OV-3 ovarian, 12.9 µM.
For `Cc1ccc(NCC2CC/C(=C\c3ccc(Cl)cc3)C2=O)cc1` (stereo unspecified), the TGI in the assay on SNB-75 CNS was over 100 µM; in the assay with MDA-MB-435 it was 35.9 µM; in the assay with HL-60(TB) leukemia it was 13.7 µM; in the assay with NCI-H522 lung it was 15.8 µM; in the assay on HCC-2998 colon, over 69.8 µM; in the assay on IGROV1 ovarian it was 38 µM. Besides, the TGI in the assay on NCI-H23 lung is 45.7 µM; in the assay with RXF 393 renal, 31 µM; with HOP-62 NSCLC, over 82.6 µM; with SK-OV-3 ovarian, over 100 µM.
`CC1(C)C(=O)N(O)C(C)(C)N1O`: the TGI with SNB-75 CNS, in the assay with MDA-MB-435, in the assay with HL-60(TB) leukemia, in the assay with NCI-H522 lung, in the assay with HCC-2998 colon and with IGROV1 ovarian was over 10 µM in each case. The TGI with NCI-H23 lung, with RXF 393 renal, with HOP-62 NSCLC and in the assay with SK-OV-3 ovarian was over 10 µM each time.
For `COc1cc2cc(C(=O)N3CC(CCl)c4c3cc(NC(=O)C(C)(C)c3ccccc3[N+](=O)[O-])c3ccccc43)[nH]c2c(OC)c1OC` (stereo unspecified), the GI50 with SNB-75 CNS was 61.7 µM; with MDA-MB-435, 91.7 µM; with HL-60(TB) leukemia, 37.1 µM; in the assay with NCI-H522 lung, 38.4 µM; in the assay with IGROV1 ovarian, 89.6 µM; in the assay on NCI-H23 lung, 8.67 µM. In addition, the GI50 in the assay on RXF 393 renal is 6.25 µM; in the assay with SK-OV-3 ovarian, 70 µM. Further, the TGI in the assay on HCC-2998 colon is 33.2 µM; in the assay with RXF 393 renal, 5.9 µM and 19.9 µM; in the assay with HOP-62 NSCLC, 0.862 µM.
Consider `Clc1cccc(Cl)c1C=NC12CC3CC(CC(C3)C1)C2`, for which the TGI with SNB-75 CNS, in the assay with MDA-MB-435, in the assay on HL-60(TB) leukemia, in the assay on NCI-H522 lung, in the assay on HCC-2998 colon and in the assay on IGROV1 ovarian was over 10 µM in each case. Besides, the TGI with NCI-H23 lung, with RXF 393 renal, with HOP-62 NSCLC and with SK-OV-3 ovarian was over 10 µM throughout.
Take `c1csc(-c2cscc2-c2ccsc2)c1`: the TGI is over 100 µM in the assay on SNB-75 CNS; over 68 µM in the assay on MDA-MB-435; over 93.8 µM with HL-60(TB) leukemia; over 100 µM in the assay on NCI-H522 lung; over 89.6 µM in the assay with HCC-2998 colon; over 100 µM with IGROV1 ovarian. For the same compound, the TGI is over 100 µM with NCI-H23 lung, 68.3 µM with RXF 393 renal, over 100 µM with HOP-62 NSCLC and over 100 µM with SK-OV-3 ovarian.
Turning to `Cc1nc2sc(CCl)nn2c(=O)c1Cl`, the TGI in the assay on SNB-75 CNS was determined as 24.7 µM; in the assay on MDA-MB-435, 18.3 µM; with HL-60(TB) leukemia it was 29.8 µM; with NCI-H522 lung, 12.4 µM; in the assay with HCC-2998 colon, 37.7 µM; in the assay on IGROV1 ovarian, 34.8 µM. The TGI is 33.3 µM in the assay on NCI-H23 lung, 11 µM in the assay on RXF 393 renal, 32.1 µM in the assay with HOP-62 NSCLC and 28.1 µM in the assay with SK-OV-3 ovarian.
With `CC[C@H](C)[C@H]1NC(=O)[C@@H](NC(=O)[C@@H](CC(C)C)N(C)C(=O)[C@@H]2CCCN2C(=O)C(C)=O)[C@@H](C)OC(=O)[C@H](Cc2ccc(OC)cc2)N(C)C(=O)[C@@H]2CCCN2C(=O)[C@H](CC(C)C)NC(=O)[C@H](C(C)C)OC(=O)C[C@@H]1O` (Pyruvoyl-P[dNMeL]T[X38][Hiv]LP[NMeY](Me); ester 3-C), the TGI was found to be 0.0101 µM with SNB-75 CNS; 0.158 µM in the assay on MDA-MB-435; 0.187 µM with HL-60(TB) leukemia; 0.179 µM in the assay with NCI-H522 lung; 0.00658 µM in the assay with HCC-2998 colon; 1.19 µM in the assay with IGROV1 ovarian. The TGI is 0.0421 µM with NCI-H23 lung, 0.0122 µM with RXF 393 renal, 0.0728 µM with HOP-62 NSCLC and 0.294 µM with SK-OV-3 ovarian.
For `CCOC(=O)CCC(NC(=O)Cc1ccc(Nc2nc3ccccc3nc2-c2ccccc2)cc1)C(=O)OCC` (stereo unspecified), the TGI in the assay with SNB-75 CNS was 38.3 µM; in the assay on MDA-MB-435, over 100 µM; in the assay on HL-60(TB) leukemia, over 100 µM; in the assay with NCI-H522 lung, over 100 µM; in the assay on HCC-2998 colon, over 100 µM; in the assay on IGROV1 ovarian, over 100 µM. Moreover, the TGI with NCI-H23 lung is over 100 µM; in the assay with RXF 393 renal, 44.8 µM; in the assay on HOP-62 NSCLC it was over 100 µM; with SK-OV-3 ovarian it was over 100 µM.
For the compound `O=C1NC(N2CCOCC2)=N/C1=C\c1cccs1`, the TGI in the assay on SNB-75 CNS, with MDA-MB-435, in the assay with HL-60(TB) leukemia, with NCI-H522 lung, in the assay on HCC-2998 colon and with IGROV1 ovarian was over 100 µM each time. The TGI with NCI-H23 lung, with RXF 393 renal, in the assay on HOP-62 NSCLC and in the assay on SK-OV-3 ovarian was over 100 µM in each case.
On to `Fc1cc(C2=C[C@H](c3ccc(Cl)cc3)NC(=S)N2)c(Cl)cc1Cl`, for which the TGI with SNB-75 CNS was over 100 µM; with MDA-MB-435, over 100 µM; with HL-60(TB) leukemia it was 65.7 µM; with NCI-H522 lung, over 100 µM; in the assay with HCC-2998 colon, 79.8 µM; in the assay with IGROV1 ovarian, over 100 µM. In addition, the TGI in the assay with NCI-H23 lung, in the assay with RXF 393 renal, with HOP-62 NSCLC and with SK-OV-3 ovarian was over 100 µM in each case.
